The values that follow come from publication PMC11294565, “Structural insights into strigolactone catabolism by carboxylesterases reveal a conserved conformational regulation” (Nature Communications, 2024).

The target of assay [1] is T1, AtCXE15 (Arabidopsis thaliana, UniProt Q9FG13).
T1 construct: gene CXE15; full length (residues 1-329; NTH cap 1-21, core 32-329), E. coli BL21(DE3), 6xHis-SUMO tag cleaved off
Nature of the assay: X-ray crystal structure (soak), […] Å. Format: binding. Particulars: covalent; D-ring of GR24 linked to S169; 1 mM rac-GR24 soak.

The target in assay [2] is T1, AtCXE15. The assay can be described thus: differential scanning fluorimetry (Sypro Orange). Format: binding. Particulars: 10 μM protein, 500 μM rac-GR24; 20 mM HEPES, 150 mM NaCl, 1 mM TCEP. On the technique in general: In DSF a fluorescence change marks the thermal transition of the protein.
The target in assay [3] is T2, AtCXE20 (Arabidopsis thaliana, UniProt Q9LVB8).
T2 construct: gene CXE20; full length (residues 1-327; cap 1-26, core 53-327), codon-optimized synthetic gene, E. coli BL21(DE3), 6xHis-SUMO tag cleaved off
T2 sequence (Q9LVB8 1-327): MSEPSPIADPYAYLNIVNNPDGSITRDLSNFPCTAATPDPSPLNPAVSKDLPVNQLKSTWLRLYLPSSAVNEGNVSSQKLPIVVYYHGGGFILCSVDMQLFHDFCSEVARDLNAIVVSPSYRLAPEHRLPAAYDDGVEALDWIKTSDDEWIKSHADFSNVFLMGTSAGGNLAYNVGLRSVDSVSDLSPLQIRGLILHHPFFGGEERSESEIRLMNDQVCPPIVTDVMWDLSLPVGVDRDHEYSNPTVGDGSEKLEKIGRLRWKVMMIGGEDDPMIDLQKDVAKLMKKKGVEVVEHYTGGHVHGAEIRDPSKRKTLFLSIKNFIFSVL
The assay can be described thus: differential scanning fluorimetry (Sypro Orange). It is filed as binding. Particulars: 10 μM protein, 500 μM rac-GR24; 20 mM HEPES, 150 mM NaCl, 1 mM TCEP.

The next assay has as its system T3, CXE20^CXE15-NTH.
T3 construct: CXE20 core with its NT-α/β replaced by the NTH of CXE15 (one polypeptide)
The assay can be described thus: fluorescence hydrolysis assay, Michaelis-Menten fit. It is filed as biochemical, Arabidopsis thaliana. To be noted: 50 mM MES pH 6.0, 250 mM NaCl, 1 mM DTT; 2 μM enzyme.

For assay [4], the target named is T1, AtCXE15. The assay is described as above. To be noted: 50 mM MES pH 6.0, 250 mM NaCl, 1 mM DTT; 1 μM enzyme. Format: biochemical.
A further assay addresses CXE15^ΔNTH (Arabidopsis thaliana, UniProt Q9FG13). The assay is described as above. Format: biochemical. Particulars: 50 mM MES pH 6.0, 250 mM NaCl, 1 mM DTT; 2 μM enzyme; no NTH peptide added.
The target in assay [5] is T2, AtCXE20. Described as above. Format: biochemical. Particulars: 50 mM MES pH 6.0, 250 mM NaCl, 1 mM DTT; 1 μM enzyme.
In a further assay the test system is T4, CXE15^CXE20-NTα/β.
T4 construct: CXE15 core with its NTH replaced by the NT-α/β of CXE20 (one polypeptide)
Described as above. Format: biochemical, Arabidopsis thaliana. Particulars: 50 mM MES pH 6.0, 250 mM NaCl, 1 mM DTT; 5 μM enzyme.

T1 sequence (Q9FG13 whole entry, the tested form may be a part): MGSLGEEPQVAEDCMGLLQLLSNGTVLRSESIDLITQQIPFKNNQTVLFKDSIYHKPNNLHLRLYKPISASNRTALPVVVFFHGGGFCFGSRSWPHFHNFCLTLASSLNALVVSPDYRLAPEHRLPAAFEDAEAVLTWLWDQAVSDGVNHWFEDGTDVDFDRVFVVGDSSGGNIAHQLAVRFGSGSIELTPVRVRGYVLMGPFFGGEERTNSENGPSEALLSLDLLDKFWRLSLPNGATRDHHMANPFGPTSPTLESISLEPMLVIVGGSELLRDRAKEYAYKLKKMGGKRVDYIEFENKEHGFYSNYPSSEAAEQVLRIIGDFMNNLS
Sequence of CXE15^ΔNTH (Q9FG13 46-329, stated change not applied): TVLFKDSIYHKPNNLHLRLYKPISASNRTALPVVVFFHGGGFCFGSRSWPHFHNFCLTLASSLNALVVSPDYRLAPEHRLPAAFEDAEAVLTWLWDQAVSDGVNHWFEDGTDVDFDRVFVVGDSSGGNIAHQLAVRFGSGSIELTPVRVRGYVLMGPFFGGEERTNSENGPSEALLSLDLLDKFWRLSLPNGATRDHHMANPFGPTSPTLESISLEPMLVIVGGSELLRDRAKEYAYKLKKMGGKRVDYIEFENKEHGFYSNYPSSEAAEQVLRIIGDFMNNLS

What is called ΔTm is the shift of the melting midpoint relative to a reference. For `CC1=CC(OC=C2C(=O)OC3c4ccccc4CC23)OC1=O` (racemic) [rac-GR24], the “X-ray crystal structure (soak), 2.3 Å” value at AtCXE15 [1] is “hydrolyzed lactone D-ring of rac-GR24 covalently linked to S169 of the catalytic triad”. Besides, the ΔTm entry at AtCXE15 [2] is “+1.0 °C”; at AtCXE20 [3], −5.0 °C.

The term Km denotes the concentration of substrate that gives half-maximal velocity. As for `CCOC(=O)c1ccccc1-c1c2ccc(=O)cc-2oc2cc(OC3C=C(C)C(=O)O3)ccc12` (centres unmarked) [Yoshimulactone Green], the Km was 7.5 ± 1.1 µM with CXE20^CXE15-NTH; 21 ± 4.7 µM at AtCXE15 [4]; 62 ± 12.6 µM on CXE15^ΔNTH; 8.6 ± 2.3 µM on AtCXE20 [5]; 19.6 ± 2.5 µM with CXE15^CXE20-NTα/β.
